# Entries after “also recorded” stand apart in the source; their conditions may differ.
# Tests used:
# [1] = test system: frataxin deficient fibroblasts (GM03665) from Friedreich's ataxia patient; test: Frataxin Deficient Fibroblast Viability Assay (BSO Assay); assay type: cell-based
# Method: Example 12: Frataxin Deficient Fibroblast Viability Assay (the “BSO Assay”)
# This Example was used to evaluate the various new compositions for their potential efficacy in the treatment of Friedreich's Ataxia (FA or FRDA)—substantially as described in the above cited Reference (Matthias et al.).
# The stock solutions of the test articles (and control compounds) were prepared in dimethyl sulfoxide (DMSO at 10 mM), Working stock solutions (2 times concentrated) were prepared on the day of the experiment in respective cell culture medium to be used for assay (detailed medium description below). A listing of compounds used as test articles in this Example 12 are found in Table 1, below.
# A patient derived frataxin deficient fibroblast cell line was obtained from Coriell Institute. More specifically, the following cell lines/DNA samples were obtained from the NIGMS Human Genetic Cell Repository at the Coriell Institute for Medical Research: GM03665. To evaluate importance of various growth conditions on cell susceptibility to BSO toxicity cells were grown on:
# MEM (Sigma-Aldrich) 15% Fetal Bovine Serum (FBS) without growth factors;
# MEM (Sigma-Aldrich) 15% FBS with growth factors (Catalogue number 100-18B, Recombinant Human FGF-basic (154 a.a.) and catalogue number AF-100-15, Animal-Free Recombinant Human EGF from Peprotech);
# MEM199/MEM EBS (Bioconcept Ltd.) 10% FBS, insulin 10 μg/ml, L-glutamine 2 mM with growth factors (Catalogue number 100-18B, Recombinant Human FGF-basic (154 a.a.) and catalogue number AF-100-15, Animal-Free Recombinant Human EGF from Peprotech).
# To conduct an experiment, fibroblast cells (from all growth conditions) were seeded (100 μL (cells 3×10^3/well) on 96-well plates in MEM199/MEM EBS medium 10% FBS, insulin 10 μg/mL, L-glutamine 2 mM with growth factors and allowed to grow on plate for 24 hrs. After 24 hrs., media was removed and then test compounds of interest were added (100 μL, 2 times concentrated stock) to 96-well plates (end DM80 concentration not exceeding 0.5%) and incubated for 24 hours. Then L-buthionine-sulfoximine (BSO, from Acros Organics, Cat. No. 235520010) was added (100 μL, 2 times concentrated stock) at end concentrations ranging from 1 to 10 mM. Both test compounds and BSO were dissolved in MEM199/MEM EBS medium 10% FBS, insulin 10 μg/mL, L-glutamine 2 mM with growth factors. Cell viability was monitored and either after 24- or 48-hours cell viability was assayed by MTT (Thiazolyl blue tetrazolium bromide) assay. For the MTT assay, media was removed and 100 μL of MTT 1 mg/mL was added, incubated for 2 hours at +37° C., then medium was removed and 100 μL of isopropanol added to dissolve sediment. Absorption was measured at 570 (OD570) and 650 (QD650) nm wavelengths. Control cells (vehicle instead of BSO and compound) and vehicle control (with BSO, but vehicle instead of test compound) were treated in the same manner as ceils with BSO and compound. All cell media contained penicillin and streptomycin 100 U/mL each.
# Absorption readouts were processed as follows: ValueΔ=ValueOD570−ValueOD650 and the obtained values were used to calculate cell viability as % of control cell (i.e., no BSO, no compound, just vehicle) viability.
# Except as otherwise indicated in Table 1, all samples were run in at least 3 replicates for test compounds and at least 8 replicates for controls (i.e., both control (no BSO, no compound) and vehicle control (i.e., with BSO, no compound). Exact N per data points are indicated in the figures/table legends. Results for the compounds (test articles and controls) tested are listed in Table 1, below.
# This is a cell-based assay measuring cytotoxicity which results from oxidative stress subsequent to depletion of endogenous glutathione defense mechanisms. The cells were primary Friedreich Ataxia (FA) patient fibroblasts which were incubated for 48 hrs. in BSO, an inhibitor of gamma glutamyl synthetase, an enzyme required for glutathione production. […]
# [2] = test system: HepG2 cells; test: Rotenone Oxygraph Assay (high-resolution respirometry of intact HepG2 cells); assay type: cell-based, human
# Method: Example 15: Rotenone Oxygraph Assay (High-Resolution Respirometry of Intact HepG2 Cells)
# The Oxygraph-2k (O2k, OROBOROS INSTRUMENTS, Austria) was used for measurements of respiration of intact cells. The respirometry was performed in Dulbecco's Modified Eagle Medium (DMEM) high glucose without supplements. All experiments were performed at 37° C.
# HepG2 cells (ATCC collection code HB-8065™) were cultured in 10 cm^2 culture dishes in DMEM high glucose medium supplemented with 10% fetal bovine serum (FBS) and 100 units/mL penicillin and 100 μg/mL streptomycin until approximately 90% confluence was reached. Immediately prior to performing the respirometric assay, the cells were washed with media without FBS, trypsinized and resuspended in DMEM high glucose without FBS.
# The final concentration of intact cells in the O2k-chamber was 0.5-10^6/mL. After stabilization of respiration, the Complex I inhibitor, rotenone, at 1 μM final concentration was added to inhibit electron flux via Complex I. Then, compound to be tested was added at 10 μM final concentration, and the change in respiration rate of intact cells was monitored. […]
# [3] = test system: HepG2 human hepatocarcinoma cells; test: Rotenone ATP Assay (Complex I by-pass assay); assay type: cell-based
# Method: Example 13: Rotenone ATP Assay (a Complex I by-Pass Assay)
# This assay has been adapted from Haefeli R H, Erb M, Gemperli A C, Robay D, Courdier Fruh I, et al. (2011) NQO1-Dependent Redox Cycling of Idebenone: Effects on Cellular Redox Potential and Energy Levels. PLoS ONE 6(3): e17963. HepG2 human hepatocarcinoma cells are co-incubated with the electron transport chain complex I toxin rotenone +/− compounds of interest and the corresponding effect on ATP synthesis is measured with a bioluminescent substrate.
# The stock solutions of the test articles (See Table 1, below for a list of the test articles examined using this assay) were prepared in dimethyl sulfoxide (DMSO at 10 mM). Working stock solutions were prepared on the day of the experiment in glucose free, serum free Dulbecco's modified Eagles medium (DMEM) supplemented with 50 micromolar rotenone.
# In brief, HepG2 cells were plated at 25,000 cells per well in low glucose (1 gram/Liter) DMEM medium+10% fetal calf serum and incubated for 24 hours. The following day, the media was decanted and subsequently replaced with glucose free/serum free DMEM which has been supplemented with 50 micromolar rotenone and compound of interest. Serial dilutions of compound were prepared in 3× dilutions beginning at 25 micromolar. The cells were incubated for 60 minutes in a humidified tissue culture incubator. Following incubation, ATP levels were quantified via bioluminescent assay (Promega […] Glo Assay kit) and readings were captured on a standard microplate reader.
# ATP bioluminescence is plotted versus the log of compound of interest and data are used to generate EC50 values. Curve fitting is performed using a sigmoidal dose response curve fit function (GraphPad Prism software).
# EC50 values were derived from seven-point dose response curves performed on n=3 technical replicates per dose. Robustness of curve fit was assessed as a quality control measure, with an R squared value of at least 0.80 being required for a successful curve fit. Compounds of interest showing an increase in ATP bioluminescence relative to vehicle control were verified in an independent biological replicate of n=3 technical replicates per dose.
# This assay is a direct measure of the ability of compounds of interest to restore ATP production under conditions of inhibition of Complex I of the mitochondrial electron transport chain. As the majority of ATP produced via the electron transport chain is thought to derive from Complex I activity, significant impairment in Complex I function has dire biological consequences. Of note, Complex I mutations are thought to drive pathophysiology in multiple mitochondrial diseases, including Leigh syndrome and Leber's Hereditary Optic Neuropathy (LHON), while diminished Complex I activity and the resultant attenuation of ATP production has been shown in neurodegenerative diseases, including Friedreich's Ataxia, Parkinson's Disease and Huntington's Disease. In brief, most compounds were tested in the Rotenone Oxygraph Assay instead of this assay but only Idebenone was active amongst Omaveloxolone, Idebenone and Vatiquinone.
# [4] = test system: GM03665 cells (fibroblasts from a subject with Friedreich's ataxia); test: RSL-3 Toxicity Assay (RSL-3 Assay); assay type: cell-based, human
# Excerpt: Example 14: RSL-3 Toxicity Assay (RSL-3 Assay)
# This assay has been adapted from: Hinman, A., Holst, C. R., Latham, J. C., Bruegger, J. J., Ulas, G., McCusker, K. P., Amagata, A., Davis, D., Hoff, K. G., Kahn-Kirby, A. H., Kim, V., Kosaka, Y., Lee, E., Malone, S. A., Mei, J. J., Richards, S. J., Rivera, V., Miller, G., Trimmer, J. K., Shrader, W. D., “Vitamin E hydroquinone is an endogenous regulator of ferroptosis via redox control of 15-lipoxygenase”, (2018) PLoS ONE 13(8): e0201369.
# In brief, GM03665 cells (Coriell Institute) were seeded in 96-well plates (Sarstedt) in DMEM cell culture media containing 10% Fetal Bovine serum and 1% Penicillin-Streptomycin (Pen-Strep) antibiotic mix at the amount of 2×10^4/mL (100 μL or 2×10^3 cells per well). Cells were left to rest overnight at 37° C. in a humidified atmosphere with 5% CO2 to allow attachment of the cells to the culture plate. Test compounds were prepared as DMSO stocks (10 mM) and were serially diluted in cell culture media to obtain 2× working solutions. Cell media was discarded and replaced by 50 μL of test compound solutions or cell media with vehicle for control wells. Within 15 minutes, 2× working solution (4 μM) of 1S,3R-RSL-3 (CAS #1219810-16-8, Sigma-Aldrich) (diluted from 5 mM DMSO stock in cell culture media) was added. Final reaction volume was 100 μL and final DMSO concentration in reaction was kept below 0.2% (v/v) and equal in all wells. Final RSL-3 concentration was 2 μM and test compound final concentrations in reaction were up to 1000 nM. After 24 hours of incubation cell viability was assessed by MTT test. MTT (Sigma-Aldrich) solution 1 mg/mL in IX PBS (pH=7.4) was prepared 1 hour before the assay and filtered through Filtropur S 0.2 filters (Sarstedt). Cell media with test compounds was discarded and 100 μL of MTT solution was added to cells. The plates were incubated for 2 hours at +37° C. Thereafter, the MTT solution was removed and 100 μL of isopropanol was added to dissolve sediment. Absorption at 570 and 650 nm was measured using Hidex Sense microplate reader.
# Compounds A and B and idebenone were not examined in this assay. The data presented in Table 1 indicates omaveloxolone was not active in this assay but that vatiquinone was active.
# Discussion—Both BSO and RSL-3 are frequently utilized to induce the regulated cell death pathway known as ferroptosis. Ferroptosis is thought to require the joint activity of iron catalyzed oxidative stress and lipid peroxidation and has been described in cell and animal models of multiple neurodegenerative diseases, including Friedreich's Ataxia, Huntington Disease, Parkinson Disease and Alzheimer's Disease. […] Of note, the results for Compounds C-I and K were favorable with respect to inhibition of ferroptotic cell death when either BSO or RSL3 were used as initiating stimulus, differentiating these compounds from omaveloxolone and idebenone.
structure (smiles),measurement,setting,value
"COC1=C(OC)C(=O)C(CCCCCCCCCCO)=C(C)C1=O [Idebenone, reference compound]",protection against BSO induced cell death (in words),"[1]; BSO Assay, text statement",not really very protective at all; also recorded: only very weakly active
same,EC50,"[1]; Homo sapiens, Fibroblast, FA patient fibroblasts pretreated with compound, BSO 10 mM, MTT after 48 hrs",> 1000 nM
same,Complex I by-pass activity in Rotenone Oxygraph Assay (in words),[2],active
same,activation at 10 µM,"[2]; Homo sapiens, intact HepG2 cells, rotenone 1 μM, compound 10 μM, increase in respiration rate",70.2%
same,Complex I by-pass activity in Rotenone ATP Assay (in words),[3],active
"CC(C)=CCC/C(C)=C/CC/C(C)=C/CC[C@@](C)(O)CCC1=C(C)C(=O)C(C)=C(C)C1=O [Vatiquinone, reference compound]",protection against RSL-3 toxicity (in words),[4],active
same,EC50,"[4]; Homo sapiens, Fibroblast, GM03665 cells, RSL-3 2 μM, 24 hours, MTT",56 nM
same,Complex I by-pass activity in Rotenone Oxygraph Assay (in words),[2],inactive
same,Rotenone Oxygraph Assay % Increase,"[2]; intact HepG2 cells, rotenone 1 μM, compound 10 μM, increase in respiration rate",Inactive
same,Complex I by-pass activity in Rotenone ATP Assay (in words),[3],inactive
same,ATP Rotenone Assay EC50,"[3]; HepG2, 50 micromolar rotenone, 60 minutes, ATP bioluminescence",Inactive

# Source: patent US12037350B2, “Compositions and methods for the prevention and/or treatment of mitochondrial disease, including Friedreich's ataxia” (Stealth BioTherapeutics Inc., priority 2020, dated 2024)
